This passage reports IC50 results from US11180474B2 (BRISTOL-MYERS SQUIBB COMPANY, priority 2016, dated 2021).

The assay has as its target T1, human TLR7 (Homo sapiens, UniProt Q9NYK1).
T1 construct: host or cells: HEK-Blue cells
T1 sequence (Q9NYK1 27-1049): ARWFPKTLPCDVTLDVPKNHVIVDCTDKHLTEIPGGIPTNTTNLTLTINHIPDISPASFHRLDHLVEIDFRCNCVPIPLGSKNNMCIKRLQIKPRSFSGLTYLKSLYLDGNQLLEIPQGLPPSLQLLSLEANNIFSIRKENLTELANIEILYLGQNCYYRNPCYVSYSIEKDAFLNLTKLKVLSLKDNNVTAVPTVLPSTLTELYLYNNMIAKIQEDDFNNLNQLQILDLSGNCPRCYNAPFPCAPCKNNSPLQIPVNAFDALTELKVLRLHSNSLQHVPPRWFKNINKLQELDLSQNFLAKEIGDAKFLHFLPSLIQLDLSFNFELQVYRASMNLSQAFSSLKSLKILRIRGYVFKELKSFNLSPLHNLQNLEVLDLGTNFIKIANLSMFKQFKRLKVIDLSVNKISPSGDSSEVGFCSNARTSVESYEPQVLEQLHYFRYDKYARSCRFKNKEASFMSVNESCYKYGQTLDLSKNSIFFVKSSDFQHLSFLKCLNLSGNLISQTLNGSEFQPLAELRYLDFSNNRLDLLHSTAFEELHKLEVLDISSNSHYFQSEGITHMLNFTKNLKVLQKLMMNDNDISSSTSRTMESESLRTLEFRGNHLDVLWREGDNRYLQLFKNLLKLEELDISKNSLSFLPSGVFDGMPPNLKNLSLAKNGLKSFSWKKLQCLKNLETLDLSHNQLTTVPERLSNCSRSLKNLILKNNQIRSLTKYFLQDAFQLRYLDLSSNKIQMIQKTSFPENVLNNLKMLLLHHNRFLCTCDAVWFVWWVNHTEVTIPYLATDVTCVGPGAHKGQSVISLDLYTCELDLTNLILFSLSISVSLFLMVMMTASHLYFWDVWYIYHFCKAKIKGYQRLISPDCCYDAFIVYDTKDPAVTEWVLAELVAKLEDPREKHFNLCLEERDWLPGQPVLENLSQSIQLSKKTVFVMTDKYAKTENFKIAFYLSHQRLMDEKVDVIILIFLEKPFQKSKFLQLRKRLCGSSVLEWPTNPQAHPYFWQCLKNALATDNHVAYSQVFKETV
Nature of the assay: TLR7 inhibition reporter assay (HEK-Blue cells, SEAP reporter, gardiquimod stimulation). The class given is cell-based. To be noted: HEK-Blue cells overexpressing human TLR7, gardiquimod 7.5 μM. In a few lines: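 22 h, 37° C, 5% CO2 incubation; compounds 0.05 nM-50 μM final; TLR7 cells 15000/well, TLR8 20,000/well. Readout: SEAP via HEK-Blue Detection medium. % inhibition = signal reduction versus agonist + DMSO wells, referenced to known inhibitor.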
(Reporter assays use an easily measured gene product as a stand-in for the process of interest.)
Turning to `COc1ccc(-c2[nH]c3ccc(C4CCN(C(=O)CN5CCCC(C(=O)NC6CCN(C(C)C)CC6)C5)CC4)cc3c2C(C)C)cc1OC` (single isomer, unassigned) [Example 280, 1-(2-(4-(2-(3,4-dimethoxyphenyl)-3-isopropyl-1H-indol-5-yl)piperidin-1-yl)-2-oxoethyl)-N-(1-isopropylpiperidin-4-yl)piperidine-3-carboxamide], the IC50 (in general, the concentration at which inhibition is half-maximal) amounted to 26 nM.
Compound `COc1ccc(-c2[nH]c3ccc(C4CCN(C(=O)CN5CCC[C@H](C(=O)N6CCN(C(C)=O)CC6)C5)CC4)cc3c2C(C)C)cc1OC` [Example 284, (S)-2-(3-(4-acetylpiperazine-1-carbonyl)piperidin-1-yl)-1-(4-(2-(3,4-dimethoxyphenyl)-3-isopropyl-1H-indol-5-yl)piperidin-1-yl)ethan-1-one] returned an IC50 of 39 nM.
Then `COc1ccc(-c2[nH]c3ccc(C4CCN(C(=O)CN5CCC[C@H](C(=O)N6CCCC6)C5)CC4)cc3c2C(C)C)cc1OC` [Example 287, (S)-1-(4-(2-(3,4-dimethoxyphenyl)-3-isopropyl-1H-indol-5-yl)piperidin-1-yl)-2-(3-(pyrrolidine-1-carbonyl)piperidin-1-yl)ethan-1-one], with 38 nM; and `COc1ccc(-c2[nH]c3ccc(C4CCN(C(=O)CN5CCC[C@@H](C(=O)N6CC7CNCC7C6)C5)CC4)cc3c2C(C)C)cc1OC` (stereo partly drawn) [Example 310, 1-(4-(2-(3,4-dimethoxyphenyl)-3-isopropyl-1H-indol-5-yl)piperidin-1-yl)-2-((3R)-3-(octahydropyrrolo[3,4-c]pyrrole-2-carbonyl)piperidin-1-yl) ethan-1-one], with 290 nM.
In turn, `COc1ccc(-c2[nH]c3ccc(C4CCN(C(=O)CNC5CCC(C(C)(C)O)CC5)CC4)cc3c2C(C)C)cc1OC` (stereo not drawn) [Example 245, 1-(4-(2-(3,4-dimethoxyphenyl)-3-isopropyl-1H-indol-5-yl)piperidin-1-yl)-2-((4-(2-hydroxypropan-2-yl)cyclohexyl)amino)ethan-1-one] showed an IC50 of 26 nM.
Then `COc1ccc(-c2[nH]c3ccc(C4CCN(CC(=O)N5CCN(C)CC5)CC4)cc3c2C(C)C)cc1OC` [Example 274, 2-(4-(2-(3,4-dimethoxyphenyl)-3-isopropyl-1H-indol-5-yl)piperidin-1-yl)-1-(4-methylpiperazin-1-yl) ethan-1-one], with 68 nM; and `CCC(CO)NCC(=O)N1CCC(c2ccc3[nH]c(-c4ccc(OC)c(OC)c4)c(C(C)C)c3c2)CC1` (stereo not drawn) [Example 233, 1-(4-(2-(3,4-dimethoxyphenyl)-3-isopropyl-1H-indol-5-yl)piperidin-1-yl)-2-((1-hydroxybutan-2-yl)amino)ethan-1-one], with 23 nM.
With `COc1ccc(-c2[nH]c3ccc(C4CCN(C(=O)CN5CCC[C@H](C(=O)NCC(N)=O)C5)CC4)cc3c2C(C)C)cc1OC` [Example 298, (S)—N-(2-amino-2-oxoethyl)-1-(2-(4-(2-(3,4-dimethoxyphenyl)-3-isopropyl-1H-indol-5-yl)piperidin-1-yl)-2-oxoethyl)piperidine-3-carboxamide], half-maximal inhibition (IC50) was put at 47 nM.
Then `COc1ccc(-c2[nH]c3ccc(C4CCN(CC(=O)NCCO)CC4)cc3c2C(C)C)cc1OC` [Example 276, 2-(4-(2-(3,4-dimethoxyphenyl)-3-isopropyl-1H-indol-5-yl)piperidin-1-yl)-N-(2-hydroxyethyl) acetamide], with 17 nM.
Then `COc1ccc(-c2[nH]c3ccc(C4CCN(C(=O)CN5CCC[C@@H](C(=O)N6CCC(N(C)C)CC6)C5)CC4)cc3c2C(C)C)cc1OC` [Example 305, (R)-1-(4-(2-(3,4-dimethoxyphenyl)-3-isopropyl-1H-indol-5-yl)piperidin-1-yl)-2-(3-(4-(dimethylamino)piperidine-1-carbonyl)piperidin-1-yl)ethan-1-one], with 27 nM.
Turning to `COc1ccc(-c2[nH]c3ccc(C4CCN(Cc5cnc[nH]5)CC4)cc3c2C(C)C)cc1OC` [Example 268, 5-(1-((1H-imidazol-5-yl)methyl)piperidin-4-yl)-2-(3,4-dimethoxyphenyl)-3-isopropyl-1H-indole], the IC50 turned out to be 31 nM.
Under `COc1ccc(-c2[nH]c3ccc(C4CCN(C(=O)CN5CCC[C@H](C(=O)NCC#N)C5)CC4)cc3c2C(C)C)cc1OC` [Example 297, (S)—N-(cyanomethyl)-1-(2-(4-(2-(3,4-dimethoxyphenyl)-3-isopropyl-1H-indol-5-yl)piperidin-1-yl)-2-oxoethyl)piperidine-3-carboxamide] stands 48 nM; under `COc1ccc(-c2[nH]c3ccc(C4CCN(C(=O)CN5CCCC(CO)C5)CC4)cc3c2C(C)C)cc1OC` (stereo not drawn) [Example 249, 1-(4-(2-(3,4-dimethoxyphenyl)-3-isopropyl-1H-indol-5-yl)piperidin-1-yl)-2-(3-(hydroxymethyl)piperidin-1-yl)ethan-1-one], 21 nM; under `COc1ccc(-c2[nH]c3ccc(C4CCN(CC(=O)N5CC[C@H](O)C5)CC4)cc3c2C(C)C)cc1OC` [Example 278, (S)-2-(4-(2-(3,4-dimethoxyphenyl)-3-isopropyl-1H-indol-5-yl)piperidin-1-yl)-1-(3-hydroxypyrrolidin-1-yl)ethan-1-one], 8 nM.
Then `COc1ccc(-c2[nH]c3ccc(C4CCN(C(=O)CN(C)C(C)C)CC4)cc3c2C(C)C)cc1OC` [Example 227, 1-(4-(2-(3,4-dimethoxyphenyl)-3-isopropyl-1H-indol-5-yl)piperidin-1-yl)-2-(isopropyl(methyl)amino) ethan-1-one], with 29 nM; and `COc1ccc(-c2[nH]c3ccc(C4CCN(Cc5nccn5C)CC4)cc3c2C(C)C)cc1OC` [Example 262, 2-(3,4-dimethoxyphenyl)-3-isopropyl-5-(1-((1-methyl-1H-imidazol-2-yl)methyl)piperidin-4-yl)-1H-indole], with 61 nM.
Take `COc1ccc(-c2[nH]c3ccc(C4CCN(C(=O)CN5CCC[C@H](C(=O)N6CCC(CCO)CC6)C5)CC4)cc3c2C(C)C)cc1OC` [Example 291, (S)-1-(4-(2-(3,4-dimethoxyphenyl)-3-isopropyl-1H-indol-5-yl)piperidin-1-yl)-2-(3-(4-(2-hydroxyethyl)piperidine-1-carbonyl)piperidin-1-yl)ethan-1-one]: the IC50 is 36 nM.
In turn, `COc1ccc(-c2[nH]c3ccc(C4CCN(C(=O)COC(C)C)CC4)cc3c2C(C)C)cc1OC` [Example 314, 1-(4-(2-(3,4-dimethoxyphenyl)-3-isopropyl-1H-indol-5-yl)piperidin-1-yl)-2-isopropoxyethan-1-one] yielded an IC50 of 284 nM.
Under `COc1ccc(-c2[nH]c3ccc(C4CCN(C5CCN(C6CC6)CC5)CC4)cc3c2C)cc1OC` [Example 23, 5-(1′-cyclopropyl-[1,4′-bipiperidin]-4-yl)-2-(3,4-dimethoxyphenyl)-3-methyl-1H-indole] stands 101 nM; under `COc1ccc(-c2[nH]c3ccc(C4CCN(C(=O)CN5CCC(O)CC5)CC4)cc3c2C(C)C)cc1OC` [Example 238, 1-(4-(2-(3,4-dimethoxyphenyl)-3-isopropyl-1H-indol-5-yl)piperidin-1-yl)-2-(4-hydroxypiperidin-1-yl) ethan-1-one], 36 nM; under `CCN(CC)C(=O)C1CCCN(C(=O)CN2CCC(c3ccc4[nH]c(-c5ccc(OC)c(OC)c5)c(C(C)C)c4c3)CC2)C1` (stereo not drawn) [Example 272, 1-(2-(4-(2-(3,4-dimethoxyphenyl)-3-isopropyl-1H-indol-5-yl)piperidin-1-yl)acetyl)-N,N-diethylpiperidine-3-carboxamide], 83 nM.
